Laboratory results from patent publication US9572855B2, “Combination anti-estrogen receptor cancer therapy using MUC1 peptides and chemotherapeutics” (DANA-FARBER CANCER INSTITUTE, INC., priority 2013, dated 2017).
Non-standard residues stand in square brackets, D forms with d. Residues, ends and D or L forms follow the SMILES beside them.

Key:
MCF-7/MUC1-C cells [1] = experiment: Cell death by trypan blue staining; type: cell-based, human
From the text: (§1) (FIG. 2B) Control MCF-7/vector (diamonds) and MCF-7/MUC1-C (triangles) cells were left untreated.

MUC1-negative 293T cells = experiment: Cell death by trypan blue staining; type: cell-based, human; details: GO-203 each day for 4 days, day 4 (FIG. 8)
From the text: FIG. 8. 293T cells were left untreated or treated with GO-203 each day for 4 days.

BT-474/CshRNA cells [2] = experiment: Cell growth (viable cell number); Chou-Talalay drug combination; type: cell-based, human; details: BT-474 and BT-474/CshRNA cells; 5 μM tamoxifen on days 0 and 2; vs untreated (FIG. 1B)
BT-474/MUC1shRNA cells [3] = details: 5 μM tamoxifen on days 0 and 2 (FIG. 1B)
From the text: (§2) The multiple effect-level isobologram analyses are shown for the ED50 (X), ED75 (+) and ED90 (⊙) values.

MCF-7/vector cells [4] = experiment: Cell growth (cell number); Chou-Talalay drug combination; type: cell-based, human; details: MCF-7 and MCF-7/vector cells; 5 μM tamoxifen on days 0, 2 and 4 (FIG. 2B)
From the text: as §2

MCF-7/MUC1-C cells [5] = experiment: Cell growth (viable cell number); Chou-Talalay drug combination; type: cell-based, human; details: 5 μM tamoxifen on days 0, 2 and 4 (FIG. 2B)
From the text: Lysates were immunoblotted with the indicated antibodies. […] Lysates were immunoblotted with the indicated antibodies.
(§3) (FIG. 6A) MCF-7/MUC1-C cells were infected with lentiviruses expressing the control shRNA (CshRNA) or the MUC1shRNA. Lysates from wild-type (WT) MCF-7 cells, MCF-7/MUC1-C/CshRNA and MCF-7/MUC1-C/MUC1shRNA cells were immunoblotted with the indicated antibodies. […] The results (mean±SD of three replicates) are expressed as viable cell number. […] The multiple effect-level isobologram analyses are shown for the ED50 (X), ED75 (+) and ED90 (⊙) values.

[6] = test system: MCF-7/MUC1-C/MUC1shRNA cells; experiment: Cell growth (viable cell number); type: cell-based, human; details: 5 μM tamoxifen days 0 and 2 (FIG. 6B)
From the text: as §3

BT-474/MUC1shRNA cells [7] = experiment: Cell death by trypan blue staining; type: cell-based, human; details: 5 μM tamoxifen on days 0 and 2; compared to BT-474/CshRNA cells (FIG. 1C, left)
From the text: Cell number is expressed as the mean±SD of three replicates. […] The results (mean±SD of three replicates) are expressed as the percentage of cell death as determined by trypan blue staining on the indicated days (left) or on day 4 (right). […] Colony number (>30 cells) is expressed as the mean±SD of three replicates (right). […] Colony number (>30 cells) is expressed as the mean±SD of three replicates.

BT-474/CshRNA cells [8] = experiment: Colony formation assay; type: cell-based, human; details: 5 μM tamoxifen every other day for 14 days (FIG. 1E, left)
Procedure: (§4) FIGS. 5A-G. Tamoxifen-resistant cells are sensitive to MUC1-C inhibition. […] Lysates were immunoblotted with the indicated antibodies. (FIG. 5B) BT-474/CshRNA cells were left untreated (diamonds) or treated with 5 μM GO-203 (squares) each day for the indicated days. […] Lysates were immunoblotted with the indicated antibodies. (FIG. 5E) MCF-7/MUC1-C cells were left untreated (diamonds) or treated with 5 μM GO-203 (squares) each day for the indicated days. […] Soluble chromatin was precipitated with anti-ERα (left), anti-CBP (right) or a control IgG. The precipitates were analyzed for Rab31 promoter sequences.
(§5) Colony formation assays. Cells were seeded in 6-well plates for 24 h and then left untreated or treated with inhibitor. After 7-14 d, the cells were washed and stained with 0.5% crystal violet in 25% methanol. Colonies >30 cells were counted in triplicate wells.

BT-474/MUC1shRNA cells [9] = experiment: Colony formation assay; type: cell-based, human; details: 5 μM tamoxifen every other day for 14 days (FIG. 1E, right)
Procedure: as §5

MCF-7/vector cells [10] = experiment: Colony formation assay; type: cell-based, human; details: 5 μM tamoxifen every other day for 7 days (FIG. 2E, left)
From the text: (FIG. 2A) Lysates from wild-type (WT) MCF-7 cells, MCF-7/vector and MCF-7/MUC1-C cells were immunoblotted with the indicated antibodies. (FIG. 2B) Control MCF-7/vector (diamonds) and MCF-7/MUC1-C (triangles) cells were left untreated. […] Cell number is expressed as the mean±SD of three replicates. […] The results (mean±SD of three replicates) are expressed as the percentage of cell death as determined by trypan blue staining on the indicated days (left) or on day 4 (right). (FIG. 2D) MCF-7/vector and MCF-7/MUC1-C cells were seeded at 500 cells/well (6-well plate), grown for 7 days and then stained with crystal violet (left). Colony number (>30 cells) is expressed as the mean±SD of three replicates (right). […] Colony number (>30 cells) is expressed as the mean±SD of three replicates. Colony formation assays. Cells were seeded in 6-well plates for 24 h and then left untreated or treated with inhibitor. After 7-14 d, the cells were washed and stained with 0.5% crystal violet in 25% methanol. Colonies >30 cells were counted in triplicate wells.

MCF-7/MUC1-C cells [11] = experiment: Colony formation assay; type: cell-based, human; details: 5 μM tamoxifen every other day for 7 days (FIG. 2E, right)
Procedure: as §1, §4, §5

4-hydroxytamoxifen [OHTAM]
loss of viability (percentage of cell death) (MCF-7/MUC1-C cells [1]; 10 nM OHTAM on days 0 and 2, day 4, compared to MCF-7/vector cells (FIG. 2C, right)): less sensitive

N=C(N)NCCC[C@@H](N)C(=O)N[C@H](CCCNC(=N)N)C(=O)N[C@H](CCCNC(=N)N)C(=O)N[C@H](CCCNC(=N)N)C(=O)N[C@H](CCCNC(=N)N)C(=O)N[C@H](CCCNC(=N)N)C(=O)N[C@H](CCCNC(=N)N)C(=O)N[C@H](CCCNC(=N)N)C(=O)N[C@H](CCCNC(=N)N)C(=O)N[C@H](CS)C(=O)N[C@H](CCC(N)=O)C(=O)N[C@H](CS)C(=O)N[C@H](CCCNC(=N)N)C(=O)N[C@H](CCCNC(=N)N)C(=O)N[C@H](CCCCN)C(=O)N[C@H](CC(N)=O)C(=O)O [GO-203, [R]9-CQCRRKN] (H-[dR][dR][dR][dR][dR][dR][dR][dR][dR][dC][dQ][dC][dR][dR][dK][dN]-OH)
survival (percentage of cell death) (MUC1-negative 293T cells): little if any effect

CC/C(=C(\c1ccccc1)c1ccc(OCCN(C)C)cc1)c1ccccc1 [tamoxifen]
growth (cell number) (BT-474/CshRNA cells [2]): unaffected | proliferation (cell number) (BT-474/MUC1shRNA cells [3]): clearly inhibited | growth (cell number) (MCF-7/vector cells [4]): inhibited | proliferation (cell number) (MCF-7/MUC1-C cells [5]): little effect | sensitivity to tamoxifen treatment (viable cell number) [6]: regained sensitivity | loss of viability (percentage of cell death) (BT-474/MUC1shRNA cells [7]): marked loss of viability | loss of viability (percentage of cell death) (MCF-7/MUC1-C cells [1]; 5 μM tamoxifen on days 0, 2 and 4, compared to MCF-7/vector cells (FIG. 2C, left)): less sensitive | ability to form colonies (BT-474/CshRNA cells [8]): little if any effect | colony formation (BT-474/MUC1shRNA cells [9]): marked decrease | formation of colonies (MCF-7/vector cells [10]): effective in decreasing | clonogenic survival (MCF-7/MUC1-C cells [11]): but not clonogenic survival
